Laboratory results taken from patent publication US11607426B2, “Method of targeting oncolytic viruses to tumors” (UNIVERSITY OF SOUTH FLORIDA, priority 2016, dated 2023).
Like-named read-outs stand apart in the source and are kept apart here.

Tests used:
RSV = RSV infection (viral titers) in 1-MT or vitamin K3 treated human MSCs; format: cell-based, respiratory syncytial virus; conditions: human MSCs treated with 1-MT or vitamin K3
hMSCs = assay: Boyden chamber invasion assay, hMSC migration towards LLC1 cells; conditions: media containing 1MT, 24 hours coculture
Description: Migrated MSCs were counted after 24 h.
To test the effect of 1-MT on the migratory capacity of hMSCs the inventors used a Boyden chamber invasion assay with Lewis lung carcinoma (LLC1) cells in the bottom chamber to produce trophic factors. MSCs were seeded on the top of a matrigel layer above a PET membrane with 8.0 μm pores (BD Bioscience) and treated with control MSC media or media containing 1MT. Cells were cocultured for 24 hours before fixation in 4% paraformaldehyde in PBS. Upper matrigel layer was removed by cue tip and migrant cells were visualized and counted by Giemsa staining.

PBMCs = format: cell-based, human
IDO = IDO (Homo sapiens, UniProt P14902); format: cell-based; conditions: RSV-infected MSCs treated with 1 mM 1-MT or 10 μM vitamin K3
Sequence of IDO (P14902 whole entry): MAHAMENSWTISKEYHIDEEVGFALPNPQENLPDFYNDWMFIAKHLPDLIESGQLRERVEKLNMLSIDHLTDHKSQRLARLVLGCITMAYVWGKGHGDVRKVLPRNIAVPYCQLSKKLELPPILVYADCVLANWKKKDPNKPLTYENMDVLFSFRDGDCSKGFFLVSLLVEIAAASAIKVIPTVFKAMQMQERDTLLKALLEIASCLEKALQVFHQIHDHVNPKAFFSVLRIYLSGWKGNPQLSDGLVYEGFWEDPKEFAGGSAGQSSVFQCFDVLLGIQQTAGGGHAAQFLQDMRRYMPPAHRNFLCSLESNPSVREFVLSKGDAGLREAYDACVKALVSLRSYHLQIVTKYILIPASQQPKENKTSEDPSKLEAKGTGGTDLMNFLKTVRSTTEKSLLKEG

SMILES | RSV infection as determined by viral titers (RSV) | migration of hMSC towards LLC1 cells (hMSCs) | effect on inhibition of PBMC proliferation by RSV-infected MSC conditioned medium (CFSE dye dilution) (PBMCs) | kynurenine levels (IDO) | effect on inhibition of PBMC proliferation by RSV-infected MSC conditioned medium (CFSE dye dilution) (PBMCs; 1 mM 1-MT or 10 μM vitamin K3, PHA, 5 days, flow cytometry)
Cn1cc(C[C@H](N)C(=O)O)c2ccccc21 [1-MT, 1-methyltryptophan] | did not reduce RSV infection | did not inhibit migration | abolished the negative effect on PBMC proliferation |  | 
CC1=CC(=O)c2ccccc2C1=O [vitamin K3] | did not reduce RSV infection |  |  | reduced kynurenine levels | abolished the negative effect on PBMC proliferation
